Reference: patent publication US12258354B2, “AhR modulators” (IDEAYA BIOSCIENCES, INC., priority 2018, dated 2025)

What follows are compounds tested against T1, hAhR (Homo sapiens, UniProt P35869) (assay: DRE-luciferase transcriptional reporter assay in HEPG2 DRE-Luc cells, TCDD-induced (antagonist mode)). Settings: relative IC50, 3 nM TCDD, 24-hour incubation, firefly luciferase readout.
T1 construct: Stably integrated DRE-luciferase cell lines were generated by transducing the both cell lines with Cignal XRE luciferase reporter; endogenous in cells; host or cells: HEPG2 DRE-Luc cells (only the XRE luciferase reporter was transduced)
T1 sequence (P35869 11-848): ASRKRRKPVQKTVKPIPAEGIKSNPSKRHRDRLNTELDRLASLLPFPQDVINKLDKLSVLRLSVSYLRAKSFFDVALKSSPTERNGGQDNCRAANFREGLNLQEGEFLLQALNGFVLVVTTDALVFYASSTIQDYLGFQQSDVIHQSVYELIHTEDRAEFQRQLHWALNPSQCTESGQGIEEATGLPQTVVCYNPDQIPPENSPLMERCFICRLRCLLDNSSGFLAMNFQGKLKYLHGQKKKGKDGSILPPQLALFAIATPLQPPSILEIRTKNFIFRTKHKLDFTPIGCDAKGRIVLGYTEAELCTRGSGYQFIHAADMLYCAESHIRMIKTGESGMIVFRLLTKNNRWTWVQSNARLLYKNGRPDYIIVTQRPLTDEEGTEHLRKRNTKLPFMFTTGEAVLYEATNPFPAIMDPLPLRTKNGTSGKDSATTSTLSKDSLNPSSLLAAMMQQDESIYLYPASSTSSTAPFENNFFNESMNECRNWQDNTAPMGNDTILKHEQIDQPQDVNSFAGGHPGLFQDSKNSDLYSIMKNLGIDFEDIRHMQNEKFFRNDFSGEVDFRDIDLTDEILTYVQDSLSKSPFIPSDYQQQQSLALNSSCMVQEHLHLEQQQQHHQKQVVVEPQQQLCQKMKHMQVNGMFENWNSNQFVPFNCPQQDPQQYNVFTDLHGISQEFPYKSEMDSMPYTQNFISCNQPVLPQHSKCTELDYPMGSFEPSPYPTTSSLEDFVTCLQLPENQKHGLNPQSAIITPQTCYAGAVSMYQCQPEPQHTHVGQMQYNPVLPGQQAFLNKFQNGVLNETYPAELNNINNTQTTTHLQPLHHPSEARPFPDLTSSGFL
Assay type: cell-based
Procedure: HEPG2 and HEPA1C1C7 cells were maintained in MEM and αMEM without nucleosides supplemented with 10% heat inactivated FBS respectively. Stably integrated DRE-luciferase cell lines were generated by transducing the both cell lines with Cignal XRE luciferase reporter (Qiagen) lentiviral particles according to the manufacturer protocol. For both cell lines stably integrated reporter cell lines were selected for the presence of 2 μg/mL puromycin. Following selection of stably integrated cell line pools, clonal cell lines were isolated by limiting dilution in 96-well plates. Transcriptional assays were performed by seeding 100 μL of cells at a density of 250,000 or 100,000 cells/mL, for HEPG2 and HEPA1C1C7 DRE-Luc cells respectively, into 96-well cell culture plates in OptiMEM supplemented with 0.5% heat inactivated FBS and allowed to attach overnight. For modulator assays, the compounds were added in a semi-log dose response using a D300e Digital Dispenser (Tecan) followed normalization with vehicle (DMSO). Immediately following compound addition 10 μL of 2,3,7,8-Tetrachlorodibenzo-p-dioxin (TCDD) was added to the cells to a final concentration of 3 nM or 0.3 nM for the HEPG2 and HEPA1C1C7 DRE-Luc cells respectively. Following 24-hour incubation, the medium was removed and the cells were lysed in 25 μL of Reporter Lysis Buffer (Promega). Firefly luciferase activity was measured immediately following the addition of 50 μL Luciferase Assay Reagent (Promega). The percent maximal activity for each point was determined using the following equation: (RLUsample−RLUvehicle−TCDD)/(RLUvehicle+TCDD RLUvehicle−TCDD)*100. The relative IC50, defined as the compound concentration required to reduce the TCDD induced response between the top and bottom plateau of each individual dose response curve by half, for each compound was determined using Prism 7 (GraphPad Software).

Row | IC50 [nM] | Compound
1 | < 200 | Cc1cc(-c2ncc3cc(C(F)(F)F)ccc3n2)ccc1N1CC(COCc2ccccc2)n2ncc(C)c2C1=O (centres unmarked) [compound 090, 7-((benzyloxy)methyl)-3-methyl-5-(2-methyl-4-(6-(trifluoromethyl)-quinazolin-2-yl)phenyl)-6,7-dihydropyrazolo[1,5-a]pyrazin-4 (5H)-one]
2 | < 200 | Cc1cc(N2CCn3ncc(C)c3C2=O)c(F)cc1-c1ccc2cc(C(F)(F)F)ccc2n1 [compound 024, 5-(2-fluoro-5-methyl-4-(6-(trifluoromethyl)quinolin-2-yl)phenyl)-3-methyl-6,7-dihydropyrazolo[1,5-a]pyrazin-4 (5H)-one]
3 | < 200 | Cc1cc(-c2ncc3cc(C(F)(F)F)ccc3n2)ccc1N1CCn2nc(CN3CCN(C)C(=O)C3)c(C)c2C1=O [Example 104, 3-methyl-2-((4-methyl-3-oxopiperazin-1-yl)methyl)-5-(2-methyl-4-(6-(trifluoro-methyl)quinazolin-2-yl)phenyl)-6,7-dihydropyrazolo[1,5-a]pyrazin-4 (5H)-one]
4 | 500 to 1000 | Cc1cc(-c2ncc3cc(C(F)(F)F)ccc3n2)ccc1N1CCn2ncc(C(=O)O)c2C1=O [compound 065, 5-(2-methyl-4-(6-(trifluoromethyl)quinazolin-2-yl)phenyl)-4-oxo-4,5,6,7-tetrahydropyrazolo[1,5-a]pyrazine-3-carboxylic acid]
5 | < 200 | Cc1cc(-c2ccc3nc(C(F)(F)F)cc(C)c3n2)ccc1N1CCc2cnn(C)c2C1=O [compound 028, 1-methyl-6-(2-methyl-4-(8-methyl-6-(trifluoromethyl)-1,5-naphthyridin-2-yl)phenyl)-1,4,5,6-tetrahydro-7H-pyrazolo[3,4-c]pyridin-7-one]
6 | < 200 | Cc1cc(N2CCn3ncc(C)c3C2=O)c(F)cc1-c1ncc2cc(C(F)(F)F)ccc2n1 [compound 025, 5-(2-fluoro-5-methyl-4-(6-(trifluoromethyl)quinazolin-2-yl)phenyl)-3-methyl-6,7-dihydropyrazolo[1,5-a]pyrazin-4 (5H)-one]
7 | < 200 | Cc1cc(-c2ncc3nc(C(F)(F)F)ccc3n2)ccc1N1CCn2nc(CO)c(C)c2C1=O [compound 088, 2-(hydroxymethyl)-3-methyl-5-(2-methyl-4-(6-(trifluoromethyl)-pyrido-[3,2-d]pyrimidin-2-yl)phenyl)-6,7-dihydropyrazolo[1,5-a]pyrazin-4 (5H)-one]
8 | < 200 | Cc1cc(-c2ncc3cc(C(F)(F)F)cc(C)c3n2)ccc1N1CCn2ncc(C)c2C1=O [compound 009, 3-methyl-5-(2-methyl-4-(8-methyl-6-(trifluoromethyl)quinazolin-2-yl)phenyl)-6,7-dihydropyrazolo[1,5-a]pyrazin-4 (5H)-one]
9 | 1000 to 10000 | Cc1cc(-c2ncc3cc(C(F)(F)F)ccc3n2)ccc1N1CCOc2nn(C)nc2C1=O [compound 043, 2-methyl-7-(2-methyl-4-(6-(trifluoromethyl)quinazolin-2-yl)phenyl)-6,7-dihydro-2H-[1,2,3]triazolo[4,5-f][1,4]oxazepin-8 (5H)-one]
10 | 1000 to 10000 | Cc1cc(N2CCc3cnn(C)c3C2=O)c(C)cc1-c1ccc2nc(C(F)(F)F)ccc2n1 [compound 010, 6-(2,5-dimethyl-4-(6-(trifluoromethyl)-1,5-naphthyridin-2-yl)phenyl)-1-methyl-1,4,5,6-tetrahydro-7H-pyrazolo[3,4-c]pyridin-7-one]
11 | < 200 | Cc1cc(-c2ncc3cc(C(F)(F)F)ccc3n2)ccc1N1CCn2ncc(Br)c2C1=O [compound 064, 3-bromo-5-(2-methyl-4-(6-(trifluoromethyl)quinazolin-2-yl)phenyl)-6,7-dihydropyrazolo[1,5-a]pyrazin-4 (5H)-one]
12 | < 200 | Cc1cc(-c2ncc3cc(C(F)(F)F)ccc3n2)ccc1N1CCn2ncc(C#N)c2C1=O [compound 067, 5-(2-methyl-4-(6-(trifluoromethyl)quinazolin-2-yl)phenyl)-4-oxo-4,5,6,7-tetrahydropyrazolo[1,5-a]pyrazine-3-carbonitrile]
13 | < 200 | Cc1cc(-c2ncc3nc(C(F)(F)F)ccc3n2)ccc1N1CCOc2cnn(C)c2C1 [compound 049, 1-methyl-7-(2-methyl-4-(6-(trifluoromethyl)pyrido[3,2-d]pyrimidin-2-yl)phenyl)-5,6,7,8-tetrahydro-1H-pyrazolo[3,4-f][1,4]oxazepine]
14 | < 200 | Cc1cc(-c2ncc3cc(C(F)(F)F)ccc3n2)ccc1N1CCn2nc(CN3CCO[C@@H](C)C3)c(C)c2C1=O [Example 96, (S)-3-methyl-5-(2-methyl-4-(6-(trifluoromethyl)quinazolin-2-yl)phenyl)-2-((2-methylmorpholino)methyl)-6,7-dihydropyrazolo[1,5-a]pyrazin-4 (5H)-one]
15 | < 200 | Cc1cc(-c2ccc3nc(C(F)(F)F)ccc3n2)ccc1N1CCc2cnn(C)c2C1=O [compound 027, 1-methyl-6-(2-methyl-4-(6-(trifluoromethyl)-1,5-naphthyridin-2-yl)phenyl)-1,4,5,6-tetrahydro-7H-pyrazolo[3,4-c]pyridin-7-one]
16 | < 200 | Cc1cc(-c2ncc3nc(C(F)(F)F)ccc3n2)ccc1N1CCn2nc(CN3CCOCC3)c(C)c2C1=O [Example 105, 3-methyl-5-(2-methyl-4-(6-(trifluoromethyl)pyrido[3,2-d]pyrimidin-2-yl)phenyl)-2-(morpholinomethyl)-6,7-dihydropyrazolo[1,5-a]pyrazin-4 (5H)-one]
17 | 200 to 500 | Cc1cc(N2CCn3ncc(C)c3C2=O)c(C)cc1-c1ncc2cc(C(F)(F)F)ccc2n1 [compound 003, 5-(2,5-dimethyl-4-(6-(trifluoromethyl)quinazolin-2-yl)phenyl)-3-methyl-6,7-dihydropyrazolo[1,5-a]pyrazin-4 (5H)-one]
18 | < 200 | Cc1cc(N2CCn3ncc(C)c3C2=O)c(C)cc1-c1ncc2nc(C(F)(F)F)ccc2n1 [compound 019, 5-(2,5-dimethyl-4-(6-(trifluoromethyl)pyrido[3,2-d]pyrimidin-2-yl)phenyl)-3-methyl-6,7-dihydropyrazolo[1,5-a]pyrazin-4 (5H)-one]
19 | 200 to 500 | Cc1cc(N2CCn3ncc(C)c3C2=O)c(C)cc1-c1ccc2nc(C(F)(F)F)ccc2n1 [compound 018, 5-(2,5-dimethyl-4-(6-(trifluoromethyl)-1,5-naphthyridin-2-yl)phenyl)-3-methyl-6,7-dihydropyrazolo[1,5-a]pyrazin-4 (5H)-one]
20 | 500 to 1000 | Cc1cc(N2CCOc3cnn(C)c3C2=O)c(F)cc1-c1ccc2nc(C(F)(F)F)ccc2n1 [compound 012, 7-(2-fluoro-5-methyl-4-(6-(trifluoromethyl)-1,5-naphthyridin-2-yl)phenyl)-1-methyl-6,7-dihydro-1H-pyrazolo[3,4-f][1,4]oxazepin-8 (5H)-one]
21 | < 200 | Cc1cc(-c2ncc3nc(C(F)(F)F)ccc3n2)ccc1N1CCc2cnn(C)c2C1=O [compound 004, 1-methyl-6-(2-methyl-4-(6-(trifluoromethyl)pyrido[3,2-d]pyrimidin-2-yl)phenyl)-1,4,5,6-tetrahydro-7H-pyrazolo[3,4-c]pyridin-7-one]
22 | 1000 to 10000 | Cc1cc(N2CCOc3cnn(C)c3C2=O)c(C)cc1-c1ccc2nc(C(F)(F)F)ccc2n1 [compound 032, 7-(2,5-dimethyl-4-(6-(trifluoromethyl)-1,5-naphthyridin-2-yl)phenyl)-1-methyl-6,7-dihydro-1H-pyrazolo[3,4-f][1,4]oxazepin-8 (5H)-one]
23 | < 200 | Cc1cc(-c2ccc3nc(C(F)(F)F)cc(C)c3n2)ccc1N1CCn2ncc(C)c2C1=O [compound 017, 3-methyl-5-(2-methyl-4-(8-methyl-6-(trifluoromethyl)-1,5-naphthyridin-2-yl)phenyl)-6,7-dihydropyrazolo[1,5-a]pyrazin-4 (5H)-one]
